Each structure is given as a SMILES string.

This note sets out measurements from PMC4890168 (Journal of medicinal chemistry, 2016).

Test [1] deals with cardiomyocytes isolated from adult mice. Description: Contractility in mouse cardiomyocytes. The settings on record: for potency at stimulating cardiomyocyte contraction: compared with lead 2, isoproterenol stimulation.
A further test has as its target T1, GRK2 (Bos taurus, UniProt P21146, S670A, species not given).
T1 sequence (P21146 1-689 S670A): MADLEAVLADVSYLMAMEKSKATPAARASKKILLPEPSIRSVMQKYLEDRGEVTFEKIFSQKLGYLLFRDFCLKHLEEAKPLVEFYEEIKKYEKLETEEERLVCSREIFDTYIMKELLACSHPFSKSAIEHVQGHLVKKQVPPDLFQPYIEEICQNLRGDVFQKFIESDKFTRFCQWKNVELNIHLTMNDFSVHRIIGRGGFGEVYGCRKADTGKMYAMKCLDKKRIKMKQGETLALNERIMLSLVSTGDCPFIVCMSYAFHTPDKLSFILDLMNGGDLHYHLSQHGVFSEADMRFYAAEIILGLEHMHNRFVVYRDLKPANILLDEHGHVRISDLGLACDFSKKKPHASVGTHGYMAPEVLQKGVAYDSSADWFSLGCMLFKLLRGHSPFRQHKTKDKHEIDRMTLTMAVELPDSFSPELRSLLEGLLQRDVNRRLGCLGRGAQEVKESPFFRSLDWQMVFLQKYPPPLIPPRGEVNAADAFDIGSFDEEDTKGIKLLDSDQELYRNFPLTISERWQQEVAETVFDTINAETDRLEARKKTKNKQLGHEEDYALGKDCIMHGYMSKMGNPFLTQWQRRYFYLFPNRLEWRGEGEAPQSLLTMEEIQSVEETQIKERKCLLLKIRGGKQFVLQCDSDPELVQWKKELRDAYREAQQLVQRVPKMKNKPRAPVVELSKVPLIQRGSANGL
The experiment in a line: GRK2 kinase inhibition. It is filed as biochemical.

For the next test, the target named is PKA (Homo sapiens, UniProt P17612). The experiment in a line: PKA inhibition, ADP-Glo Kinase Assay. A general note: ADP-Glo first removes unused ATP, then detects ADP through luciferase.
Another test addresses ROCK1 (Homo sapiens, UniProt Q13464). Description: ROCK1 inhibition, ADP-Glo Kinase Assay.

Sequence of ROCK1 (Q13464 whole entry, species assumed): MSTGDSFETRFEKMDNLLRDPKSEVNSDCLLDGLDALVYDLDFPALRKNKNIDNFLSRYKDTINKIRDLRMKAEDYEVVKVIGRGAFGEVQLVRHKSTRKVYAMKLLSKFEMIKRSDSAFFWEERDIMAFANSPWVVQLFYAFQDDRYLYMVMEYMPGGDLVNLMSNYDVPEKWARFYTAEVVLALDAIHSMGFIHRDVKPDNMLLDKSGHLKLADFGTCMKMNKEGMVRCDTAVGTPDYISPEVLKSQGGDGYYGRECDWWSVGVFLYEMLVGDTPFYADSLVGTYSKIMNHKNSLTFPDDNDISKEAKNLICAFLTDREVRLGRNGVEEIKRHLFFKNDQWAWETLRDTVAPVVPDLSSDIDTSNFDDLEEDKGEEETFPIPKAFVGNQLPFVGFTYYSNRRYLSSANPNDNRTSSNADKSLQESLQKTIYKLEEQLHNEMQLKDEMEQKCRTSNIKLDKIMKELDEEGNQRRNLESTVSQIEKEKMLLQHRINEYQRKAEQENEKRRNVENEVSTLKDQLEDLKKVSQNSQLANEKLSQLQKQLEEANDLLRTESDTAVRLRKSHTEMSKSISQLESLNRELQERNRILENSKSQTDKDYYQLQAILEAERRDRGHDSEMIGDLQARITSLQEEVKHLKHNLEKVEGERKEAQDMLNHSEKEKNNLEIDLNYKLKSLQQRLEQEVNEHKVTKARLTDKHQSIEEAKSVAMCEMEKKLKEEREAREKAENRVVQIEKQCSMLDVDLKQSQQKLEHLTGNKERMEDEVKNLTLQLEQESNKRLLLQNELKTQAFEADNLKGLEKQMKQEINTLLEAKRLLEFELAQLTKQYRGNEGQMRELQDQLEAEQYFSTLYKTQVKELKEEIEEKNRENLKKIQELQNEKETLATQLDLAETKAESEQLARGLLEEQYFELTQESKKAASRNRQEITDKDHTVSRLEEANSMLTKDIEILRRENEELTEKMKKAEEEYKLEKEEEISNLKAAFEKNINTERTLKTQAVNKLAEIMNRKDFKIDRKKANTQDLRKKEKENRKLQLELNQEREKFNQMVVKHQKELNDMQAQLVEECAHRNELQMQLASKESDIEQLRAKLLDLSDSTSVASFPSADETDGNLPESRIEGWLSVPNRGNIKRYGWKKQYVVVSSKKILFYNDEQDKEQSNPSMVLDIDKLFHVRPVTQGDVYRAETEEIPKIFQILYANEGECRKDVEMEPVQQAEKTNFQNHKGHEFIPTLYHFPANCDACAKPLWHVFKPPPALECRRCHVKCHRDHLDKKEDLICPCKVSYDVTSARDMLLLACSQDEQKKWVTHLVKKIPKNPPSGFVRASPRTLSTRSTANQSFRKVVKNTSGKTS

Turning to `CC1=C(C(=O)Nc2ccc3[nH]ncc3c2)C(c2ccc(F)cc2)NC(=O)N1` (stereo not shown) [Compound 2, GSK180736A, reference compound], in test [1] (isoproterenol 0.5 μM, 10 min pretreatment), the “concentration showing similar efficacy as paroxetine (10 μM) on contractility” value came to 1 µM.

Regarding `CC1=C(C(=O)Nc2ccc3[nH]ncc3c2)C(c2ccc(F)c(C(=O)O)c2)NC(=O)N1` (stereo not shown) [Compound 10, 5-(5-((1H-Indazol-5-yl)carbamoyl)-6-methyl-2-oxo-1,2,3,4-tetrahydropyrimidin-4-yl)-2-fluorobenzoic acid], the “loss in potency against GRK2 relative to 2” value on GRK2 came out at 20 fold. Moreover, at PKA, the “loss in potency against PKA relative to 2” value turned out to be 2 fold.

Regarding `CNC(=O)c1cc(C2NC(=O)NC(C)=C2C(=O)Nc2ccc3[nH]ncc3c2)ccc1F` (stereo not shown) [Compound 12a, 4-(4-Fluoro-3-(methylcarbamoyl)phenyl)-N-(1H-indazol-5-yl)-6-methyl-2-oxo-1,2,3,4-tetrahydropyrimidine-5-carboxamide], the “loss in potency against GRK2 relative to 2” value at GRK2 is recorded as 5 fold. Moreover, the IC50 – broadly, the concentration needed to halve the response being measured – on PKA is > 100 µM.

Consider `CC1=C(C(=O)Nc2ccc3[nH]ncc3c2)C(c2ccc(F)c(C(=O)NCc3ccccc3)c2)NC(=O)N1` (stereo not shown) [Compound 12b, 4-(3-(Benzylcarbamoyl)-4-fluorophenyl)-N-(1H-indazol-5-yl)-6-methyl-2-oxo-1,2,3,4-tetrahydropyrimidine-5-carboxamide], for which, at PKA, the IC50 is > 100 µM.

Turning to `CC1=C(C(=O)Nc2ccc3[nH]ncc3c2)C(c2ccc(F)c(C(=O)NCc3cccc(F)c3)c2)NC(=O)N1` (stereo not shown) [Compound 12c, 4-(4-Fluoro-3-((3-fluorobenzyl)carbamoyl)phenyl)-N-(1H-indazol-5-yl)-6-methyl-2-oxo-1,2,3,4-tetrahydropyrimidine-5-carboxamide], on PKA, the IC50 was > 100 µM.

Turning to `CC1=C(C(=O)Nc2ccc3[nH]ncc3c2)C(c2ccc(F)c(C(=O)NCc3c(F)cccc3F)c2)NC(=O)N1` (stereo not shown) [Compound 12d, 4-(3-((2,6-Difluorobenzyl)carbamoyl)-4-fluorophenyl)-N-(1H-indazol-5-yl)-6-methyl-2-oxo-1,2,3,4-tetrahydropyrimidine-5-carboxamide], the IC50 against PKA was > 100 µM. Also, the “potency at stimulating cardiomyocyte contraction” value in test [1] was “equivalent to or slightly more potent than the lead 2”.

Turning to `COc1ccccc1CNC(=O)c1cc(C2NC(=O)NC(C)=C2C(=O)Nc2ccc3[nH]ncc3c2)ccc1F` (stereo not shown) [Compound 12e, 4-(4-Fluoro-3-((2-methoxybenzyl)carbamoyl)phenyl)-N-(1H-indazol-5-yl)-6-methyl-2-oxo-1,2,3,4-tetrahydropyrimidine-5-carboxamide], the half-maximal inhibitory concentration (IC50) on PKA was > 100 µM.

With `COc1cccc(CNC(=O)c2cc(C3NC(=O)NC(C)=C3C(=O)Nc3ccc4[nH]ncc4c3)ccc2F)c1` (stereo not shown) [Compound 12f, 4-(4-Fluoro-3-((3-methoxybenzyl)carbamoyl)phenyl)-N-(1H-indazol-5-yl)-6-methyl-2-oxo-1,2,3,4-tetrahydropyrimidine-5-carboxamide], on PKA, the IC50 is > 100 µM.

On to `COc1ccc(CNC(=O)c2cc(C3NC(=O)NC(C)=C3C(=O)Nc3ccc4[nH]ncc4c3)ccc2F)cc1` (stereo not shown) [Compound 12g, 4-(4-Fluoro-3-((4-methoxybenzyl)carbamoyl)phenyl)-N-(1H-indazol-5-yl)-6-methyl-2-oxo-1,2,3,4-tetrahydropyrimidine-5-carboxamide], for which, at PKA, the IC50 was > 100 µM.

For the compound `CC1=C(C(=O)Nc2ccc3[nH]ncc3c2)C(c2ccc(F)c(C(=O)NCc3ccccn3)c2)NC(=O)N1` (stereo not shown) [Compound 12h, 4-(4-Fluoro-3-((pyridin-2-ylmethyl)carbamoyl)phenyl)-N-(1H-indazol-5-yl)-6-methyl-2-oxo-1,2,3,4-tetrahydropyrimidine-5-carboxamide], the IC50 is > 100 µM against PKA and ~0.01 µM against ROCK1. Also, at ROCK1, the “increase in potency for ROCK1 over 2” value turned out to be 10 fold.

With `CC1=C(C(=O)Nc2ccc3[nH]ncc3c2)C(c2ccc(F)c(C(=O)NCCc3ccccn3)c2)NC(=O)N1` (stereo not shown) [Compound 12i, 4-(4-Fluoro-3-((2-(pyridin-2-yl)ethyl)carbamoyl)phenyl)-N-(1H-indazol-5-yl)-6-methyl-2-oxo-1,2,3,4-tetrahydropyrimidine-5-carboxamide], on PKA, the IC50 is > 100 µM.

For `CC1=C(C(=O)Nc2ccc3[nH]ncc3c2)C(c2ccc(F)c(C(=O)NCCc3ccncc3)c2)NC(=O)N1` (stereo not shown) [Compound 12j, 4-(4-Fluoro-3-((2-(pyridin-4-yl)ethyl)carbamoyl)phenyl)-N-(1H-indazol-5-yl)-6-methyl-2-oxo-1,2,3,4-tetrahydropyrimidine-5-carboxamide], at PKA, the IC50 is > 100 µM.

Turning to `CC1=C(C(=O)Nc2ccc3[nH]ncc3c2)C(c2ccc(F)c(C(=O)NCc3c(C)cccc3C)c2)NC(=O)N1` (stereo not shown) [Compound 12m, 4-(3-((2,6-Dimethylbenzyl)carbamoyl)-4-fluorophenyl)-N-(1H-indazol-5-yl)-6-methyl-2-oxo-1,2,3,4-tetrahydropyrimidine-5 carboxamide], the IC50 on PKA was > 100 µM. Further, the “potency at stimulating cardiomyocyte contraction” value in test [1] is listed as “equivalent to or slightly more potent than the lead 2”.

`CC1=C(C(=O)Nc2ccc3[nH]ncc3c2)C(c2ccc(F)c(C(=O)NCc3c(C(F)(F)F)cccc3C(F)(F)F)c2)NC(=O)N1` (stereo not shown) [Compound 12o, 4-(3-((2,6-Bis(trifluoromethyl)benzyl)carbamoyl)-4-fluorophenyl)-N-(1H-indazol-5-yl)-6-methyl-2-oxo-1,2,3,4-tetrahydropyrimidine-5-carboxamide]: at PKA, the IC50 was > 100 µM.

For `CC1=C(C(=O)Nc2ccc3[nH]ncc3c2)C(c2ccc(F)c(C(=O)NCc3cc(C(F)(F)F)cc(C(F)(F)F)c3)c2)NC(=O)N1` (stereo not shown) [Compound 12p, 4-(3-((3,5-Bis(trifluoromethyl)benzyl)carbamoyl)-4-fluorophenyl)-N-(1H-indazol-5-yl)-6-methyl-2-oxo-1,2,3,4-tetrahydropyrimidine-5-carboxamide], the IC50 against PKA was > 100 µM.

Regarding `CC1=C(C(=O)Nc2ccc3[nH]ncc3c2)C(c2ccc(F)c(C(=O)NCc3ncccc3C)c2)NC(=O)N1` (stereo not shown) [Compound 12q, 4-(4-Fluoro-3-(((3-methylpyridin-2-yl)methyl)carbamoyl)phenyl)-N-(1H-indazol-5-yl)-6-methyl-2-oxo-1,2,3,4-tetrahydropyrimidine-5-carboxamide], on PKA, the IC50 was > 100 µM.

On to `CC1=C(C(=O)Nc2ccc3[nH]ncc3c2)C(c2ccc(F)c(C(=O)NCCc3c(C)cccc3C)c2)NC(=O)N1` (stereo not shown) [Compound 12r, 4-(3-((2,6-Dimethylphenethyl)carbamoyl)-4-fluorophenyl)-N-(1H-indazol-5-yl)-6-methyl-2-oxo-1,2,3,4-tetrahydropyrimidine-5-carboxamide], for which the IC50 against PKA was > 100 µM.

Turning to `CC1=C(C(=O)Nc2ccc3[nH]ncc3c2)C(c2ccc(F)c(CC(=O)NCc3c(C)cccc3C)c2)NC(=O)N1` (stereo not shown) [Compound 13a, 4-(3-(2-((2,6-Dimethylbenzyl)amino)-2-oxoethyl)-4-fluorophenyl)-N-(1H-indazol-5-yl)-6-methyl-2-oxo-1,2,3,4-tetrahydropyrimidine-5-carboxamide], the half-maximal inhibitory concentration (IC50) on PKA is > 100 µM.

As for `CC1=C(C(=O)Nc2ccc3[nH]ncc3c2)C(c2ccc(F)c(CC(=O)NCc3c(C(F)(F)F)cccc3C(F)(F)F)c2)NC(=O)N1` (stereo not shown) [Compound 13b, 4-(3-(2-((2,6-Bis(trifluoromethyl)benzyl)amino)-2-oxoethyl)-4-fluorophenyl)-N-(1H-indazol-5-yl)-6-methyl-2-oxo-1,2,3,4-tetrahydropyrimidine-5-carboxamide], the IC50 on PKA is > 100 µM.

`COc1cccc(OC)c1CNC(=O)Cc1cc(C2NC(=O)NC(C)=C2C(=O)Nc2ccc3[nH]ncc3c2)ccc1F` (stereo not shown) [Compound 13c, 4-(3-(2-((2,6-Dimethoxybenzyl)amino)-2-oxoethyl)-4-fluorophenyl)-N-(1H-indazol-5-yl)-6-methyl-2-oxo-1,2,3,4-tetrahydropyrimidine-5-carboxamide]: the IC50 on PKA was > 100 µM.

Regarding `CC1=C(C(=O)N(C)c2ccc3[nH]ncc3c2)C(c2ccc(F)c(C(=O)NCc3c(C)cccc3C)c2)NC(=O)N1` (stereo not shown) [Compound 20, 4-(3-((2,6-Dimethylbenzyl)carbamoyl)-4-fluorophenyl)-N-(1H-indazol-5-yl)-N,6-dimethyl-2-oxo-1,2,3,4-tetrahydropyrimidine-5-carboxamide], on GRK2, the “decrease in potency at GRK2 compared to 12m” value was ~70 fold. For the same compound, the IC50 at PKA is > 100 µM.

Turning to `CC1=C(C(=O)Nc2ccc3c(c2)OCO3)C(c2ccc(F)c(C(=O)NCc3ccccn3)c2)NC(=O)N1` (stereo not shown) [Compound 24, N-(Benzo[d][1,3]dioxol-5-yl)-4-(4-fluoro-3-((pyridin-2-ylmethyl)carbamoyl)phenyl)-6-methyl-2-oxo-1,2,3,4-tetrahydropyrimidine-5-carboxamide], the “kinase inhibition” value on GRK2 (GRK2, GRK1, GRK5, PKA (Table 2)) was “completely inactive”. In addition, the IC50 on PKA is > 100 µM.

Consider `Fc1ccc([C@@H]2CCNC[C@H]2COc2ccc3c(c2)OCO3)cc1` [Paroxetine, paroxetine, reference compound], for which, at PKA, the IC50 was > 100 µM.
